The values that follow come from patent publication EP4620466A1, “TRIMETHOXYSTYRYL DERIVATIVES FOR USE IN THE TREATMENT OF PACLITAXEL-RESISTANT CANCER” (Instituto de Investigación Biomédica de Salamanca De la …, priority 2024, dated 2025).

One assay concerns HeLa cells. Description: Cell proliferation assay (XTT), cytostatic activity. It counts as cell-based. The settings on record: 72-h treatment, XTT cell proliferation kit. As for the experimental part: […] cells were seeded in 96-well plates and incubated in the presence or the absence of the indicated compounds at concentrations ranging from 10^-5 to 10^-12 M. The cytostatic activity was measured after 72-h treatments using the XTT (sodium 3'-[1-(phenylaminocarbonyl)-3,4-tetrazolium]-bis(4- methoxy-6-nitro)-benzenesulfonic acid hydrate) cell proliferation kit (Roche Molecular Biochemicals; Mannheim, Germany) following the manufacturer's specifications. Each condition was seeded in triplicate, and experiments were repeated three times to calculate IC values by non-linear regression fitting the data.
The IC50 is the midpoint of a concentration-inhibition curve. Read a high IC50 as weaker potency. As to “1-Methyl-5-(2,3,4- trimethoxybenzoyl)-1H-indole-3-carbonitrile [Compound 26]”, the IC50 was above 1000 nM.

As to “1-Methyl-5-[1-(2,3,4-trimethoxyphenyl)vinyl]-1H-indol-3-ylmethanol [Compound 18]”, the IC50 amounted to 300 nM.

On to “5-(N-(3,5-dimethoxyphenyl)sulfamoyl)-1-methyl-1H-indole-3-carboxamide [Compound 54]”, for which the half-inhibitory concentration (IC50) stood at 1770 nM.

Regarding `COc1cc(C(=NO)c2ccc3c(ccn3C)c2)cc(OC)c1OC` (mixture of isomers) [Compound 7, (E/Z)-(I-Methyl-1H-indol-5-yl)(3,4,5-trimethoxyphenyl)methanone oxime], the half-maximal inhibitory concentration (IC50) is 360 nM. Against the preceding molecule, the IC50 is about 4.9-fold lower.

Consider `COc1ccc(C(C)c2ccc3c(c2)c(C=NN)cn3C)c(OC)c1OC` (centres unmarked) [Compound 22], for which the concentration for half-maximal inhibition (IC50) is 420 nM.

The assay is the same for the next values; noted with them: Homo sapiens, 72-h treatment, XTT cell proliferation kit.
In turn, `CSc1cc(C(=NO)c2ccc3c(ccn3C)c2)cc(Cl)n1` (mixture of isomers) [Compound 66, (E/Z)-(2-chloro-6-(methylsulfanyl)pyridin-4-yl) (1-methyl-1H-indol-5-yl)methanone oxime] gave an IC50 of 300 nM.

Take `CSc1cc(C(=NO)c2ccc3c(c2)c(C#N)cn3C)cc(Cl)n1` (mixture of isomers) [Compound 69, (E/Z)-5-((2-chloro-6-(methylsulfanyl)pyridin-4-yl)(hydroxyimino)methyl)-1-methyl-1H-indole-3-carbonitrile]: the IC50 amounted to 60 nM.

On to `CSc1cc(C(=NO)c2ccc3c(ccn3C)c2)cc(SC)n1` (mixture of isomers) [Compound 75, (E/Z)-(2,6-bis(methylsulfanyl)pyridin-4-yl) (1-methyl-1H-indol-5-yl)methanone oximes], for which 500 nM corresponded to half-maximal inhibition (IC50). Compared with the last molecule, the IC50 is about 8.3-fold higher.

On to `COc1cc(C(O)c2ccc3c(ccn3C)c2)cc(OC)c1OC` (centres unmarked) [Compound 1, (1-methyl-1H-indol-5-yl)(3,4,5-trimethoxyphenyl)methanol], for which the 50% inhibitory concentration (IC50) was above 1000 nM.

In turn, `COc1ccc(C(O)c2ccc3c(ccn3C)c2)c(OC)c1OC` (centres unmarked) [Compound 2, (1-methyl-1H-indol-5-yl)(2,3,4-trimethoxyphenyl)methanol] had an IC50 above 1000 nM.

As to `COc1cc(C(=O)c2ccc3c(ccn3C)c2)cc(OC)c1OC` [Compound 3, (1-methyl-1H-indol-5-yl)(3,4,5-trimethoxyphenyl)methanone], the midpoint of inhibition, the IC50, lay at 25 nM.

Molecule `COc1ccc(C(=O)c2ccc3c(ccn3C)c2)c(OC)c1OC` [Compound 4, (1-methyl-1H-indol-5-yl)(2,3,4-trimethoxyphenyl)methanone] had an IC50 of 17 nM.

In the case of `C=C(c1cc(OC)c(OC)c(OC)c1)c1ccc2c(ccn2C)c1` [Compound 5, 1-methyl-5-(1-(3,4,5-trimethoxyphenyl)vinyl)-1H-indole], the IC50 turned out to be 2.7 nM.

The molecule `C=C(c1ccc2c(ccn2C)c1)c1ccc(OC)c(OC)c1OC` [Compound 6, 1-methyl-5-(1-(2,3,4-trimethoxyphenyl)vinyl)-1H-indole] returned a concentration for half-maximal inhibition (IC50) of 32 nM. Against the preceding molecule, the IC50 is about 12-fold higher.

`COc1ccc(/C(=N\O)c2ccc3c(ccn3C)c2)c(OC)c1OC` [Compound 8, Z-(1-methyl-1H-indol-5-yl)(2,3,4-trimethoxyphenyl)methanone oxime]: the 50% inhibitory concentration (IC50) was 76 nM.

`COc1cc(C(=O)c2ccc3c(c2)c(C=O)cn3C)cc(OC)c1OC` [Compound 9, 1-Methyl-5-[1-(3,4,5-trimethoxybenzoyl)]-1H-indole-3-carbaldehyde] showed an IC50 of 320 nM.

`COc1ccc(C(=O)c2ccc3c(c2)c(C=O)cn3C)c(OC)c1OC` [Compound 10, 1-Methyl-5-(2,3,4-trimethoxybenzoyl)-1H-indole-3-carbaldehyde]: 780 nM corresponded to half-maximal inhibition (IC50).

For `C=C(c1cc(OC)c(OC)c(OC)c1)c1ccc2c(c1)c(C=O)cn2C` [Compound 11, 1-Methyl-5-[1-(3,4,5-trimethoxyphenyl)vinyl]-1H-indole-3-carbaldehyde], the half-inhibitory concentration (IC50) amounted to 20 nM.

Consider `C=C(c1ccc2c(c1)c(C=O)cn2C)c1ccc(OC)c(OC)c1OC` [Compound 12, 1-Methyl-5-[1-(2,3,4-trimethoxyphenyl)vinyl]-1H-indole-3-2carbaldehyde], for which half-maximal inhibition (IC50) required 32 nM.

For the molecule `COc1cc(C(C)c2ccc3c(ccn3C)c2)cc(OC)c1OC` (centres unmarked) [Compound 13, 1-Methyl-5-(1-(3,4,5-trimethoxyphenyl)ethyl)-1H-indole], it took 0.64 nM to reach half-maximal inhibition (IC50).

Consider `COc1ccc(C(C)c2ccc3c(ccn3C)c2)c(OC)c1OC` (centres unmarked) [Compound 14, 1-Methyl-5-(1-(2,3,4-trimethoxyphenyl)ethyl)-1H-indole], for which the midpoint of inhibition, the IC50, lay at 310 nM.

`COc1cc(C(=O)c2ccc3c(c2)c(C(=O)O)cn3C)cc(OC)c1OC` [Compound 15, 1-Methyl-5-(3,4,5-trimethoxybenzoyl)-1H-indole-3-carboxylic acid] showed an IC50 of 7000 nM.

For the molecule `C=C(c1cc(OC)c(OC)c(OC)c1)c1ccc2c(c1)c(C(=O)O)cn2C` [Compound 16, 1-Methyl-5-(1-(3,4,5-trimethoxyphenyl)vinyl)-1H-indole-3-carboxylic acid], the IC50 was above 10000 nM.

As for `C=C(c1cc(OC)c(OC)c(OC)c1)c1ccc2c(c1)c(CO)cn2C` [Compound 17, 1-Methyl-5-[1-(3,4,5-trimethoxyphenyl)vinyl]-1H-indol-3-ylmethanol], the midpoint of inhibition, the IC50, lay at 310 nM.

As for `C=C(c1cc(OC)c(OC)c(OC)c1)c1ccc2c(c1)c(C=NO)cn2C` [Compound 19, 1-Methyl-5-[1-(3,4,5-trimethoxyphenyl)vinyl]-1H-indole-3-carbaldehyde oxime], the half-inhibitory concentration (IC50) is 6.2 nM.

In turn, `C=C(c1ccc2c(c1)c(C=NO)cn2C)c1ccc(OC)c(OC)c1OC` [Compound 20, 1-Methyl-5-[1-(2,3,4-trimethoxyphenyl)vinyl]-1H-indol-3-carbaldehyde oxime] registered a concentration for half-maximal inhibition (IC50) of 34 nM. This IC50 lies about 5.5-fold higher than the previous one.

As for `C=C(c1cc(OC)c(OC)c(OC)c1)c1ccc2c(c1)c(C=NN)cn2C` [Compound 21, (1-Methyl-5-[1-(3,4,5-trimethoxyphenyl)vinyl]-1H-indol-3-yl)methylene hydrazine], half-maximal inhibition (IC50) required 38 nM.

Consider `C=C(c1cc(OC)c(OC)c(OC)c1)c1ccc2c(c1)c(C#N)cn2C` [Compound 23, 1-Methyl-5-[1-(3,4,5-trimethoxyphenyl)vinyl]-1H-indole-3-carbonitrile], for which half-maximal inhibition (IC50) required 2.9 nM. This IC50 is about 13-fold lower than that of the molecule before.

`C=C(c1ccc2c(c1)c(C#N)cn2C)c1ccc(OC)c(OC)c1OC` [Compound 24, 1-Methyl-5-[1-(2,3,4-trimethoxyphenyl)vinyl]-1H-indole-3-carbonitrile]: the IC50 stood at 32 nM.

Regarding `C=C(c1cc(OC)c(OC)c(OC)c1)c1ccc2c(c1)c(C(N)=O)cn2C` [Compound 25, 1-Methyl-5-(1-(3,4,5-trimethoxyphenyl)vinyl)-1H-indole-3-carboxamide], the IC50 worked out at 2.5 nM.

For the molecule `COc1cc(/C=C\c2ccc3c(ccn3C)c2)cc(OC)c1OC` [Compound 27, (Z)-1-Methyl-5-[2-(3,4,5-trimethoxyphenyl)vinyl)-1H-indole], the IC50 was 250 nM.

On to `Cn1ccc2cc(C(=O)c3cc(Cl)nc(Cl)c3)ccc21` [Compound 55, (2,6-dichloropyridin-4-yl)(1-methyl-1H-indol-5-yl)methanone], for which the IC50 amounted to 800 nM.

Regarding `C=C(c1cc(Cl)nc(Cl)c1)c1ccc2c(ccn2C)c1` [Compound 56, 5-(1-(2,6-dichloropyridin-4-yl)vinyl)-1-methyl-1H-indole], inhibition was half-maximal at 40 nM (IC50).

Regarding `Cn1cc(C=O)c2cc(C(=O)c3cc(Cl)nc(Cl)c3)ccc21` [Compound 57, 5-(2,6-dichloroisonicotinoyl)-1-methyl-1H-indole-3-carbaldehyde], the IC50 was above 1000 nM.

For the molecule `C=C(c1cc(Cl)nc(Cl)c1)c1ccc2c(c1)c(C=O)cn2C` [Compound 58, 5-(1-(2,6-dichloropyridin-4-yl)vinyl)-1-methyl-1H-indole-3-carbaldehyde], half-maximal inhibition (IC50) required 200 nM.

For the molecule `Cn1cc(C=NO)c2cc(C(=NO)c3cc(Cl)nc(Cl)c3)ccc21` [Compound 59, 5-((2,6-dichloropyridin-4-yl)(hydroxyimino)methyl)-1-methyl-1H-indole-3-carbaldehyde oxime], the half-maximal inhibitory concentration (IC50) is above 1000 nM.

Molecule `Cn1cc(C#N)c2cc(C(=NO)c3cc(Cl)nc(Cl)c3)ccc21` [Compound 60, 5-((2,6-dichloropyridin-4-yl)(hydroxyimino)methyl)-1-methyl-1H-indole-3-carbonitrile] registered a half-inhibitory concentration (IC50) above 1000 nM.

In the case of `C=C(c1cc(Cl)nc(Cl)c1)c1ccc2c(c1)c(C=NO)cn2C` [Compound 61, 5-(1-(2,6-dichloropyridin-4-yl)vinyl)-1-methyl-1H-indole-3-carbaldehyde oxime], the IC50 is above 1000 nM.

Turning to `C=C(c1cc(Cl)nc(Cl)c1)c1ccc2c(c1)c(C#N)cn2C` [Compound 62, 5-(1-(2,6-dichloropyridin-4-yl)vinyl)-1-methyl-1H-indole-3-carbonitrile], it took 80 nM to reach half-maximal inhibition (IC50).

`C=C(c1cc(Cl)nc(Cl)c1)c1ccc2c(c1)c(C(N)=O)cn2C` [Compound 63, 5-(1-(2,6-dichloropyridin-4-yl)vinyl)-1-methyl-1H-indole-3-carboxamide] yielded an IC50 of 50 nM.

Turning to `CSc1cc(C(=O)c2ccc3c(ccn3C)c2)cc(Cl)n1` [Compound 64, (2-chloro-6-(methylthio)pyridin-4-yl)(1-methyl-1H-indol-5-yl)methanone], the IC50 worked out at 300 nM. Compared with the last molecule, the IC50 is about 6-fold higher.

Turning to `C=C(c1cc(Cl)nc(SC)c1)c1ccc2c(ccn2C)c1` [Compound 65, 5-(1-(2-Chloro-6-(methylsulfanyl)pyridin-4-yl)vinyl)-1-methyl-1H-indole], 100 nM corresponded to half-maximal inhibition (IC50). Against the preceding molecule, the IC50 is about 3-fold lower.

In the case of `CSc1cc(C(=O)c2ccc3c(c2)c(C=O)cn3C)cc(Cl)n1` [Compound 67, 5-(2-Chloro-6-(methylsulfanyl)isonicotinoyl)-1-methyl-1H indole-3-carbaldehyde], the IC50 was above 1000 nM.

For the molecule `C=C(c1cc(Cl)nc(SC)c1)c1ccc2c(c1)c(C=O)cn2C` [Compound 68, 5-(1-(2-chloro-6-(methylsulfanyl)pyridin-4-yl)vinyl)-1-methyl-1H-indole-3-carbaldehyde], the IC50 is 70 nM.
